The record followed here is patent US20220267288A1, “CARDIAC THERAPEUTIC” (priority 2019, published 2022).

One data set has as its target T1, CYP2J2 (Homo sapiens, UniProt P51589).
T1 sequence (P51589 1-502): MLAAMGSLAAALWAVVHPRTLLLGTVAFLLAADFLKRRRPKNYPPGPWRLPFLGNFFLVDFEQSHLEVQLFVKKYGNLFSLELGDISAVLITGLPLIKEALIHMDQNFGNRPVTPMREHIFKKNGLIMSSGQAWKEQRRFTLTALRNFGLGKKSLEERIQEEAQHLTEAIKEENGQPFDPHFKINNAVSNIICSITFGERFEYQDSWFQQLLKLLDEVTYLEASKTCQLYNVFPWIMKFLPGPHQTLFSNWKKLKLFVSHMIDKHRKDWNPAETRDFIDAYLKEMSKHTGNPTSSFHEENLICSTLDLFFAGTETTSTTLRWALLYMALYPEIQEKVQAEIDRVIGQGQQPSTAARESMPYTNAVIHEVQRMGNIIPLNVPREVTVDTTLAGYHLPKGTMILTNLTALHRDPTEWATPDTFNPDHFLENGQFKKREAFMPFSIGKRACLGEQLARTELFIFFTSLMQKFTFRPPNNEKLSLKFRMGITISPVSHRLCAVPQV
Briefly: In-vitro metabolic half-life with recombinant CYP2J2. It counts as in vitro ADME. To be noted: recombinant CYP2J2, NADPH, 1 μM drug, read-out: Metabolic half-life (T1/2).

In the next data set the test system is dogs. In words: Electrophysiological variables (AERP, VERP, repolarization periods) in halothane-anesthetized dogs. It counts as in vivo, dog. As to conditions: 3 mg/kg. Here is the method: Animals were obtained through Kitayama Labes Co., Ltd. (Nagano, Japan). All experiments were approved by the Toho University Animal Care and User Committee (No. 18-51-395) and performed according to the Guideline for the Care and Use of Laboratory Animals of Toho University.
The dogs were initially anesthetized with thiopental sodium (30 mg/kg, i.v.). After intubation with a cuffed endotracheal tube, anesthesia was maintained by inhalation of halothane (1% v/v) vaporized in oxygen with a volume-limited ventilator (SN-480-3; Shinano Manufacturing Co., Ltd., Tokyo, Japan). Tidal volume and respiratory rate were set at 20 mL/kg and 15 breaths/min, respectively. […] To prevent blood clotting, heparin calcium (100 IU/kg) was intravenously administered through a flush line of the catheter sheath placed at the right femoral vein.
The lead II electrocardiogram was obtained from the limb electrodes. The P-wave duration, PR interval, QRS width and QT interval were measured, and QT interval was corrected with Van de Water's formula: QTc=QT-0.087×(RR-1,000) with RR given in ms. The J-Tpeak and Tpeak-Tend were measured as follows. When the end of T-wave was obscure, we used the monophasic action potential (MAP) signal as a guide to estimate the end. The J-Tpeak was corrected for the heart rate with a coefficient as previously described (J-Tpeakc=J-Tpeak/RR^0.58 with RR given in seconds).
A standard 6-French, quad-polar electrodes catheter (Cordis-Webster Inc., Baldwin Park, Calif., USA) was positioned at the non-coronary cusp of the aortic valve through the left femoral artery to obtain the His bundle electrogram. Another 6-French, quad-polar electrode catheter (Cordis-Webster Inc.) was positioned at the sinus nodal areas of the right atrium through the right femoral vein to electrically pace and to record the local electrogram. A bi-directional steerable MAP recording/pacing combination catheter (1675P; EP Technologies, Inc., CA, USA) was positioned at the endocardium of the interventricular septum in the right ventricle through the left femoral vein to obtain MAP signals. The signals were amplified with a DC preamplifier (model 300; EP Technologies, Inc.). The duration of the MAP signals was measured as an interval, along a horizontal line corresponding to the diastolic baseline, from the MAP upstroke to the desired repolarization level. The interval (ms) at 90% repolarization was defined as MAP90.
The heart was electrically driven with a cardiac stimulator (SEC-3102; Nihon Kohden Co., Ltd.) via the pacing electrodes of the combination catheter placed in the right ventricle or the electrodes of the catheter placed at the right atrium. The stimulation pulses were rectangular in shape, 1-2 V (about twice the threshold voltage) and 1 ms duration. The MAP90 of the ventricle was measured during sinus rhythm (MAP90(sinus)) and at a pacing cycle length of 400 ms (MAP90(CL400)) and 300 ms (MAP90(CL300)). The atrial effective refractory period (AERP) and ventricular effective refractory period (VERP) were assessed with the programmed electrical stimulation. The pacing protocol consisted of 5 beats of basal stimuli in a cycle length of 400 ms followed by an extra stimulus of various coupling intervals. Starting in the late diastole, the coupling interval was shortened in 5-ms decrements until the additional stimulus could no longer elicit a response. The AERP and VERP were defined as the shortest coupling interval that could produce a response. The duration of the terminal repolarization period of the ventricle, reflecting phase-3 repolarization time of the action potential, was calculated by the difference between the MAP90(CL400) and VERP (terminal repolarization period=MAP90(CL400)−VERP) at the same site to estimate the extent of electrical vulnerability of the ventricular muscle.

Data set [1] is described as follows: Aqueous solubility, MultiscreenHTS PCF Filter Plates. It counts as physicochemical. To be noted: aqueous buffer; universal buffer (pH 7.4). Here is the method: The aqueous solubility of each compound was measured in universal buffer (pH 7.4) using MultiscreenHTS PCF Filter Plates. The effective permeability of each compound was measured using the parallel artificial membrane permeability assay (PAMPA).

Molecules are shown by their SMILES.

The term solubility denotes the concentration that dissolves in the medium under given conditions. Lower therefore signals a poorly soluble substance. Regarding `CCCCc1oc2ccc(NS(C)(=O)=O)cc2c1C(=O)c1ccc(OCCCN(CCCC)CCCC)cc1.Cl` [Dronedarone], at CYP2J2, the half-life at 1 μM amounted to 4.95 min. In the data set with dogs (20 min after administration), the ΔAERP entry was “+43” and the ΔVERP entry is on record as “+23”. Besides, in the data set with dogs (60 min after administration), the “ΔJ-Tpeakc (early repolarization period)” value is recorded as “+7”, the “ΔTRP (terminal repolarization period)” value is “+11” and the “ΔTpeak-Tend (late repolarization period)” value is “+25”. The molecule further gave a solubility in data set [1] of 3.22 µg/mL.
Turning to `Cl.[2H]c1c(NS(C)(=O)=O)c([2H])c2c(C(=O)c3ccc(OCCCN(CCCC)CCCC)cc3)c(CCCC)oc2c1[2H]` [Poyendarone, Methanesulfonamide, N-(2-butyl-3-(4-(3-(dibutylamino)propoxy)benzoyl)-1-benzo(4,6,7-d3)-furan-5-yl)hydrochloride], on CYP2J2, the half-life at 1 μM is 5.32 min. In the data set with dogs (30 min after administration), the ΔAERP entry is listed as “+25” and the ΔVERP result is “+14”. In addition, in the data set with dogs (45 min after administration), the ΔAERP entry is “+34”, the “ΔJ-Tpeakc (early repolarization period)” value is reported as −5, the “ΔTRP (terminal repolarization period)” value was −1.5 and the “ΔTpeak-Tend (late repolarization period)” value is on record as “+1”. Moreover, in the data set on dogs (45 min after administration), the ΔVERP result is listed as “+13”. Further, the solubility in data set [1] is 2.43 µg/mL.
